Assays:
cAMP = cAMP level in mouse kidney tissue; type: in vivo; conditions: PC1 conditional knockout mouse kidneys, VX-809-treated vs untreated
Procedure: FIG. 4A, FIG. 4B, FIG. 4C, FIG. 4D, and FIG. 4E show (FIG. 4A-FIG. 4B) cAMP levels are reduced by VX-809. (FIG. 4A) cAMP levels in mouse tissue were reduced by VX-809. The kidney samples (n=6) analyzed were taken from those depicted in FIG. 1. (FIG. 4B) Confluent PN and PH cells were treated with VX-809 (10 μM) or DMSO for 16 hand then treated with forskolin (100 μM) for 30 min before the cells were harvested for the assay. Columns represent means±SEM. Statistical analysis was performed using a two-tailed Student's t-test. Each set of data is from three individual wells; Note that resting cAMP is greater in PN vs PH cells as previously shown (25). Also note that forskolin caused a large increase in cAMP. A smaller increase occurred with IBMX. […] The data were analyzed by non-parametric t-test. […]
It has been shown previously in both animal and cell culture models of ADPKD that cells lacking functional PC1 have elevated cAMP levels when compared to normal. To assess the effect of CFTR correctors, cAMP activity was measured in PC1 conditional knockout mouse kidneys and in PN cells that were either left untreated or treated with VX-809. […]
Cyclic AMP assay. […] Cyclic AMP levels were measured with a direct cAMP Enzyme Immunoassay Kit (Sigma, #CA200) according to the manufacturer's protocol. The results are expressed as pmole/ml. […]

[1] = tested on: kidneys of Pkd1^fl/fl; Pax8^rtTA; TetO-cre mice; experiment: Ki67 staining of kidney sections (proliferation); type: in vivo, mouse; conditions: 30 mg/kg, vs DMSO-treated mice
Source text: FIG. 3A, FIG. 3B, FIG. 3C, and FIG. 3D show cell proliferation is reduced by VX-809. (FIG. 3A-FIG. 3B) Proliferation in kidneys of Pkd1^fl/fl; Pax8^rtTA; TetO-cre mice. Representative images of Ki67 (a cellular marker for proliferation) staining of PN21 kidney sections from DMSO- and VX-809-treated mice. Arrows indicate Ki67-positive cells. Pictures were acquired with a Zeiss microscope equipped with 20× objective. (FIG. 3C) Summary data for Ki67-positive cells. Columns represent averages±standard errors of DMSO (vehicle)-treated (n=3) and VX-809-treated (n=3) mice. Statistical analysis was performed using a two-tailed Student's t test. (FIG. 3D) Proliferation in PN cells. PN cells were treated with VX-809 or DMSO). The bromodeoxyuridine (BrdU) concentration in the cells was measured by using a BrdU cell proliferation assay kit (Millipore Sigma#2750) according to the manufacturer's protocol. Columns represent averages±SEs of the OD of BrdU at 450/550 […]. Data were analyzed using Student's t-test, with n=5-7. Methods were described previously (62). *P>0.05; **P<0.01;
A hallmark of the cysts in ADPKD is an increase in proliferation in response to cAMP. Therefore, it was determined whether VX-809 would affect proliferation.

HSP27, 70, 90 and HSP40 = experiment: Western blot of heat shock proteins in kidney tissue lysates; type: in vivo; conditions: 30 mg/kg BW, cyst-induced mouse kidneys
Procedure: FIG. 7A, FIG. 7B, FIG. 7C, FIG. 7D, FIG. 7E, and FIG. 7F show chaperone expression is altered in mice by VX-809. (FIG. 7A-FIG.7B) Representative Western blot images of HSP27, 70, 90 and HSP40 in lysates of kidney tissue from no cyst induced (ND), cyst induced with Doxycycline (D) or cyst induced pkd−/− mice treated with VX-809 (D+VX-809) 30 mg/kg BW. (FIG. 7C, FIG. 7D, FIG. 7E, and FIG. 7F). Columns represent averages±standard errors of HSP27, 70, 90 and HSP40 expression. Data were analyzed by non-parametric t-test. n=4 for each treated and control groups. Black lines between lanes represent representative experiments from the same gel. *P<0.05; **P<0.01;
To facilitate their growth in the kidney, cysts have developed an altered network of proteins that most likely serves to protect them from stress . Next, it was determined whether VX-809 would alter the levels of Hsps in pkd−/− mice and in PN cells. […] Hsp 27, 70 and 90 are all elevated in cystic kidneys compared to normal controls. […] There is no change in Hsp40. […] Both sets of data are consistent with an alteration in the heat shock response to cyst growth.

cAMP in PN cells = experiment: Cyclic AMP enzyme immunoassay in cells; type: cell-based, mouse
Procedure: FIG. 4A, FIG. 4B, FIG. 4C, FIG. 4D, and FIG. 4E show (FIG. 4A-FIG. 4B) cAMP levels are reduced by VX-809. (FIG. 4A) cAMP levels in mouse tissue were reduced by VX-809. The kidney samples (n=6) analyzed were taken from those depicted in FIG. 1. (FIG. 4B) Confluent PN and PH cells were treated with VX-809 (10 μM) or DMSO for 16 hand then treated with forskolin (100 μM) for 30 min before the cells were harvested for the assay. Columns represent means±SEM. Statistical analysis was performed using a two-tailed Student's t-test. Each set of data is from three individual wells; Note that resting cAMP is greater in PN vs PH cells as previously shown (25). Also note that forskolin caused a large increase in cAMP. A smaller increase occurred with IBMX. However, the increase induced by forskolin alone was similar to that by IBMX plus forskolin. […] (FIG. 4C, FIG. 4D, and FIG. 4E) Adenylyl cyclase expression. (FIG. 4C) Western blot showing the expression of adenylyl cyclase (AC) 6 and AC3 in treated and control PN cells. (FIG. 4D-FIG. 4E) Columns represent means±SEM of the AC3 and AC6 expression. The data were analyzed by non-parametric t-test. The experiment was repeated four times. For all graphs, *P<0.05, **P<0.01, and ***P<0.001;
It has been shown previously in both animal and cell culture models of ADPKD that cells lacking functional PC1 have elevated cAMP levels when compared to normal. To assess the effect of CFTR correctors, cAMP activity was measured in PC1 conditional knockout mouse kidneys and in PN cells that were either left untreated or treated with VX-809. […] Cells were treated with forskolin, which increased cAMP levels drastically (FIG. 4B). It should be noted that VX-809 reduced the forskolin-induced increase in cAMP, indicating a direct action of VX-809 on adenylyl cyclase activity. […] Treating PN cells with forskolin or IBMX (FIG. 4B) increased the cAMP activity by approximately 10-fold.
Cyclic AMP assay. Confluent cells were treated with VX-809 (10 μM) or DMSO for 16 h before being harvested for assay. Cyclic AMP levels were measured with a direct cAMP Enzyme Immunoassay Kit (Sigma, #CA200) according to the manufacturer's protocol. The results are expressed as pmole/ml. Statistical analysis was performed using a two-tailed Student's t-test.

## Cc1ccc(NC(=O)C2(c3ccc4c(c3)OC(F)(F)O4)CC2)nc1-c1cccc(C(=O)O)c1 [VX-809, lumacaftor]
cAMP
  cAMP levels in kidneys: significantly decreased
[1]
  cell proliferation (Ki67-positive cells): significantly inhibit cell proliferation
HSP27, 70, 90 and HSP40
  Hsp27 expression: significantly less expression
  Hsp40 expression: no change
  Hsp70 expression: significantly less expression
  Hsp90 expression: significantly less expression
cAMP in PN cells; 10 μM, 16 h, PN cells, no forskolin
  resting cAMP levels: significantly decreased
cAMP in PN cells; 10 μM, 16 h, then forskolin 100 μM 30 min
  forskolin-induced increase in cAMP: reduced
cAMP in PN cells; forskolin in combination with IBMX (data bars 5 and 9, FIG. 4B)
  forskolin- or IBMX-induced increases in adenylyl cyclase activity: did not affect
cAMP in PN cells; inferred from forskolin/IBMX experiment
  phosphodiesterase activity: does not affect

— patent publication US20220133702A1, “CYSTIC FIBROSIS TRANSMEMBRANE CONDUCTANCE REGULATOR MODULATORS FOR TREATING AUTOSOMAL DOMINANT POLYCYSTIC KIDNEY DISEASE” (The Johns Hopkins University, priority 2020, published 2022)
